ChEMBL document CHEMBL3885881, “DrugMatrix”

Species: Rattus norvegicus
Test: DrugMatrix - Regimen: Daily Repeat
Assay type: toxicity, organism-based, Sprague-Dawley
Set-up: regimen Daily Repeat, gender Male, age 6-8 weeks
Settings: in vivo, po, route oral GAVAGE, vehicle .5 % CMC; for ABSOLUTE BASOPHIL / ABSOLUTE EOSINOPHIL / ABSOLUTE LYMPHOCYTE / ABSOLUTE MONOCYTE / ABSOLUTE SEGMENTED NEUTROPHIL / BASOPHIL / EOSINOPHIL / ERYTHROCYTE COUNT / HEMATOCRIT / HEMOGLOBIN / LEUKOCYTE COUNT / LYMPHOCYTE / MEAN CORPUSCULAR HEMOGLOBIN / MEAN CORPUSCULAR HEMOGLOBIN CONCENTRATION / MEAN CORPUSCULAR VOLUME / MONOCYTE / NEUTROPHIL / NUCLEATED RED BLOOD CELLS / PLATELET COUNT: tissue Blood; for ALANINE AMINOTRANSFERASE / ALBUMIN / ALKALINE PHOSPHATASE / ASPARTATE AMINOTRANSFERASE / BLOOD UREA NITROGEN / CARBON DIOXIDE / CHLORIDE / CHOLESTEROL / CREATINE PHOSPHOKINASE / CREATININE / GLUCOSE / LACTATE DEHYDROGENASE / LIPASE / PHOSPHORUS / POTASSIUM / SODIUM / TOTAL BILIRUBIN / TOTAL PROTEIN / URIC ACID: tissue Plasma
[1] = 200 mg/kg, 120 h, dose level Low, time 5 day
[2] = 2500 mg/kg, 72 h, dose level High, time 3 day
[3] = 2500 mg/kg, 120 h, dose level High, time 5 day

## Cc1cnc(C(=O)NCCc2ccc(S(=O)(=O)NC(=O)NC3CCCCC3)cc2)cn1 [GLIPIZIDE]
[1]
  ABSOLUTE BASOPHIL: 0 CELLS/uL
  ABSOLUTE EOSINOPHIL: 50.67 CELLS/uL
  ABSOLUTE LYMPHOCYTE: 13488 CELLS/uL
  ABSOLUTE MONOCYTE: 195 CELLS/uL
  ABSOLUTE SEGMENTED NEUTROPHIL: 633 CELLS/uL
  BASOPHIL: 0%
  EOSINOPHIL: 0.33%
  ERYTHROCYTE COUNT: 5.57 x10E6/uL
  HEMATOCRIT: 34.23%
  HEMOGLOBIN: 13.7 G/DL
  LEUKOCYTE COUNT: 14.37 x10E3/uL
  LYMPHOCYTE: 94%
  MEAN CORPUSCULAR HEMOGLOBIN: 24.63 pg
  MEAN CORPUSCULAR HEMOGLOBIN CONCENTRATION: 40 G/DL
  MEAN CORPUSCULAR VOLUME: 61.53 fL
  MONOCYTE: 1.33%
  NEUTROPHIL: 4.33%
  NUCLEATED RED BLOOD CELLS: 0 /100WBC
  PLATELET COUNT: 1282.33 x10E3/uL
  ALANINE AMINOTRANSFERASE: 62.33 u/L
  ALBUMIN: 4.3 G/DL
  ALKALINE PHOSPHATASE: 343.67 u/L
  ASPARTATE AMINOTRANSFERASE: 82.67 u/L
  BLOOD UREA NITROGEN: 14 mg/dL
  CARBON DIOXIDE: 32.33 mmol/L
  CHLORIDE: 103 MEQ/L
  CHOLESTEROL: 74.67 mg/dL
  CREATINE PHOSPHOKINASE: 208.33 u/L
  CREATININE: 0.13 mg/dL
  GLUCOSE: 118.67 mg/dL
  LACTATE DEHYDROGENASE: 116.33 u/L
  LIPASE: 10.67 u/L
  PHOSPHORUS: 10.77 mg/dL
  POTASSIUM: 6.11 MEQ/L
  SODIUM: 144.93 MEQ/L
  TOTAL BILIRUBIN: 0.2 mg/dL
  TOTAL PROTEIN: 6.03 G/DL
  URIC ACID: 0.9 mg/dL
[2]
  ABSOLUTE BASOPHIL: 0 CELLS/uL
  ABSOLUTE EOSINOPHIL: 83.33 CELLS/uL
  ABSOLUTE LYMPHOCYTE: 11306.67 CELLS/uL
  ABSOLUTE MONOCYTE: 81.67 CELLS/uL
  ABSOLUTE SEGMENTED NEUTROPHIL: 861.67 CELLS/uL
  BASOPHIL: 0%
  EOSINOPHIL: 0.67%
  ERYTHROCYTE COUNT: 5.69 x10E6/uL
  HEMATOCRIT: 36.9%
  HEMOGLOBIN: 14.23 G/DL
  LEUKOCYTE COUNT: 12.33 x10E3/uL
  LYMPHOCYTE: 91.67%
  MEAN CORPUSCULAR HEMOGLOBIN: 25.07 pg
  MEAN CORPUSCULAR HEMOGLOBIN CONCENTRATION: 38.57 G/DL
  MEAN CORPUSCULAR VOLUME: 64.9 fL
  MONOCYTE: 0.67%
  NEUTROPHIL: 7%
  NUCLEATED RED BLOOD CELLS: 0 /100WBC
  PLATELET COUNT: 1346.67 x10E3/uL
  ALANINE AMINOTRANSFERASE: 54 u/L
  ALBUMIN: 4.17 G/DL
  ALKALINE PHOSPHATASE: 318.33 u/L
  ASPARTATE AMINOTRANSFERASE: 75.33 u/L
  BLOOD UREA NITROGEN: 16 mg/dL
  CARBON DIOXIDE: 31 mmol/L
  CHLORIDE: 102.33 MEQ/L
  CHOLESTEROL: 72.33 mg/dL
  CREATINE PHOSPHOKINASE: 179.33 u/L
  CREATININE: 0.15 mg/dL
  GLUCOSE: 148.67 mg/dL
  LACTATE DEHYDROGENASE: 104.33 u/L
  LIPASE: 10 u/L
  PHOSPHORUS: 11.9 mg/dL
  POTASSIUM: 6.37 MEQ/L
  SODIUM: 143.83 MEQ/L
  TOTAL BILIRUBIN: 0.17 mg/dL
  TOTAL PROTEIN: 5.63 G/DL
  URIC ACID: 1.7 mg/dL
[3]
  ABSOLUTE BASOPHIL: 0 CELLS/uL
  ABSOLUTE EOSINOPHIL: 102.33 CELLS/uL
  ABSOLUTE LYMPHOCYTE: 11867.33 CELLS/uL
  ABSOLUTE MONOCYTE: 0 CELLS/uL
  ABSOLUTE SEGMENTED NEUTROPHIL: 1397 CELLS/uL
  BASOPHIL: 0%
  EOSINOPHIL: 0.67%
  ERYTHROCYTE COUNT: 5.55 x10E6/uL
  HEMATOCRIT: 34.63%
  HEMOGLOBIN: 14.1 G/DL
  LEUKOCYTE COUNT: 13.37 x10E3/uL
  LYMPHOCYTE: 88%
  MEAN CORPUSCULAR HEMOGLOBIN: 25.4 pg
  MEAN CORPUSCULAR HEMOGLOBIN CONCENTRATION: 40.73 G/DL
  MEAN CORPUSCULAR VOLUME: 62.37 fL
  MONOCYTE: 0%
  NEUTROPHIL: 11.33%
  NUCLEATED RED BLOOD CELLS: 0 /100WBC
  PLATELET COUNT: 1273.67 x10E3/uL
  ALANINE AMINOTRANSFERASE: 58 u/L
  ALBUMIN: 4.37 G/DL
  ALKALINE PHOSPHATASE: 329 u/L
  ASPARTATE AMINOTRANSFERASE: 83.33 u/L
  BLOOD UREA NITROGEN: 15 mg/dL
  CARBON DIOXIDE: 30.67 mmol/L
  CHLORIDE: 100.67 MEQ/L
  CHOLESTEROL: 71 mg/dL
  CREATINE PHOSPHOKINASE: 224.33 u/L
  CREATININE: 0.19 mg/dL
  GLUCOSE: 140.33 mg/dL
  LACTATE DEHYDROGENASE: 117 u/L
  LIPASE: 7.67 u/L
  PHOSPHORUS: 11.13 mg/dL
  POTASSIUM: 5.21 MEQ/L
  SODIUM: 146.2 MEQ/L
  TOTAL BILIRUBIN: 0.2 mg/dL
  TOTAL PROTEIN: 6.17 G/DL
  URIC ACID: 0.8 mg/dL
